Assay results taken from PubChem BioAssay AID1918953 (Molecular Pharmacology Branch, DTP, NCI, 2023).
Several values for one entry are separate records, joined by “and”; a condition that tells them apart may be missing. Equal values may be shown once. One block for each compound: values may come before it.

System: MDA-MB-231 complex spheroid viability
Experiment: Anticancer human tumor MDA-MB-231/ATCC cell line growth inhibition;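 note: drug exposure lasted 7 days starting on day 3 of spheroid growth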
Settings: for viability, T/C: stronger effect = lower value
Procedure, shortened: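 Multicellular complex spheroids of tumor cells with human endothelial cells (HUVEC) and mesenchymal stem cells; the LSD1 inhibitor iadademstat was combined with standard-of-care or investigational agents. Top concentration at or near clinical Cmax, half-log dilutions; final DMSO ≤0.25%.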

[1] = curve of first compound, second compound 0.1 µM
[2] = curve of first compound, second compound 0.316 µM
[3] = curve of first compound, second compound 1 µM
[4] = curve of first compound, second compound 3.16 µM
[5] = curve of first compound, second compound 10 µM

SMILES: COc1cc(C2c3cc4c(cc3C(OC3OC5COC(C)OC5C(O)C3O)C3COC(=O)C23)OCO4)cc(OC)c1O (stereo unspecified) + NC1CCC(NC2CC2c2ccccc2)CC1
IC50 [1]: 153 nM
IC50 [2]: 146 nM
IC50 [3]: 130 nM
IC50 [4]: 85.3 nM
IC50 [5]: 47.5 nM
viability, T/C (second compound 0.1 µM, first compound 0.00949 µM): 93.9%
viability, T/C (second compound 0.1 µM, first compound 0.03 µM): 79.8%
viability, T/C (second compound 0.1 µM, first compound 0.0949 µM): 56.2%
viability, T/C (second compound 0.1 µM, first compound 0.3 µM): 41.6%
viability, T/C (second compound 0.1 µM, first compound 0.949 µM): 15.6%
viability, T/C (second compound 0.1 µM, first compound 3 µM): 8.25%
viability, T/C (second compound 0.316 µM, first compound 0.00949 µM): 98.8%
viability, T/C (second compound 0.316 µM, first compound 0.03 µM): 79.2%
viability, T/C (second compound 0.316 µM, first compound 0.0949 µM): 56.1%
viability, T/C (second compound 0.316 µM, first compound 0.3 µM): 40.7%
viability, T/C (second compound 0.316 µM, first compound 0.949 µM): 16.8%
viability, T/C (second compound 0.316 µM, first compound 3 µM): 9.41%
viability, T/C (second compound 1 µM, first compound 0.00949 µM): 91.1%
viability, T/C (second compound 1 µM, first compound 0.03 µM): 73.1%
viability, T/C (second compound 1 µM, first compound 0.0949 µM): 56%
viability, T/C (second compound 1 µM, first compound 0.3 µM): 37.6%
viability, T/C (second compound 1 µM, first compound 0.949 µM): 18.3%
viability, T/C (second compound 1 µM, first compound 3 µM): 10.5%
viability, T/C (second compound 3.16 µM, first compound 0.00949 µM): 79.6%
viability, T/C (second compound 3.16 µM, first compound 0.03 µM): 60.5%
viability, T/C (second compound 3.16 µM, first compound 0.0949 µM): 50.1%
viability, T/C (second compound 3.16 µM, first compound 0.3 µM): 38.2%
viability, T/C (second compound 3.16 µM, first compound 0.949 µM): 17.8%
viability, T/C (second compound 3.16 µM, first compound 3 µM): 13.3%
viability, T/C (second compound 10 µM, first compound 0.00949 µM): 59.5%
viability, T/C (second compound 10 µM, first compound 0.03 µM): 52.3%
viability, T/C (second compound 10 µM, first compound 0.0949 µM): 44.4%
viability, T/C (second compound 10 µM, first compound 0.3 µM): 33%
viability, T/C (second compound 10 µM, first compound 0.949 µM): 17.7%
viability, T/C (second compound 10 µM, first compound 3 µM): 14.4%

IC50 (curve of compound): 7610 nM and 5060 nM
SMILES: CC1(C)CCC(CN2CCN(c3ccc(C(=O)NS(=O)(=O)c4ccc(NCC5CCOCC5)c([N+](=O)[O-])c4)c(Oc4cnc5[nH]ccc5c4)c3)CC2)=C(c2ccc(Cl)cc2)C1
viability, T/C (compound 0.0316 µM): 109%
viability, T/C (compound 0.1 µM): 105% and 107%
viability, T/C (compound 0.316 µM): 100% and 114%
viability, T/C (compound 1 µM): 103% and 123%
viability, T/C (compound 3.16 µM): 102% and 83.3%

SMILES: CC(C)c1c(-c2ccccc2)nc2c(C#N)c[nH]n2c1=O + NC1CC1c1ccc(-c2cccc(O)c2)cc1
IC50 [1]: > 10000 nM
IC50 [2]: > 10000 nM
IC50 [3]: > 10000 nM
IC50 [4]: > 10000 nM
IC50 [5]: < 31.6 nM
viability, T/C (second compound 0.1 µM, first compound 0.0316 µM): 82.9%
viability, T/C (second compound 0.1 µM, first compound 0.1 µM): 84.7%
viability, T/C (second compound 0.1 µM, first compound 0.316 µM): 82%
viability, T/C (second compound 0.1 µM, first compound 1 µM): 85.4%
viability, T/C (second compound 0.1 µM, first compound 3.16 µM): 83%
viability, T/C (second compound 0.1 µM, first compound 10 µM): 82.4%
viability, T/C (second compound 0.316 µM, first compound 0.0316 µM): 71%
viability, T/C (second compound 0.316 µM, first compound 0.1 µM): 69.8%
viability, T/C (second compound 0.316 µM, first compound 0.316 µM): 70.4%
viability, T/C (second compound 0.316 µM, first compound 1 µM): 63.1%
viability, T/C (second compound 0.316 µM, first compound 3.16 µM): 76.2%
viability, T/C (second compound 0.316 µM, first compound 10 µM): 62%
viability, T/C (second compound 1 µM, first compound 0.0316 µM): 69.4%
viability, T/C (second compound 1 µM, first compound 0.1 µM): 69.5%
viability, T/C (second compound 1 µM, first compound 0.316 µM): 70.7%
viability, T/C (second compound 1 µM, first compound 1 µM): 63.6%
viability, T/C (second compound 1 µM, first compound 3.16 µM): 58.3%
viability, T/C (second compound 1 µM, first compound 10 µM): 52.9%
viability, T/C (second compound 3.16 µM, first compound 0.0316 µM): 68.5%
viability, T/C (second compound 3.16 µM, first compound 0.1 µM): 65.1%
viability, T/C (second compound 3.16 µM, first compound 0.316 µM): 71%
viability, T/C (second compound 3.16 µM, first compound 1 µM): 68%
viability, T/C (second compound 3.16 µM, first compound 3.16 µM): 62.7%
viability, T/C (second compound 3.16 µM, first compound 10 µM): 56.5%
viability, T/C (second compound 10 µM, first compound 0.0316 µM): 44.3%
viability, T/C (second compound 10 µM, first compound 0.1 µM): 42.9%
viability, T/C (second compound 10 µM, first compound 0.316 µM): 50.8%
viability, T/C (second compound 10 µM, first compound 1 µM): 51.5%
viability, T/C (second compound 10 µM, first compound 3.16 µM): 44.2%
viability, T/C (second compound 10 µM, first compound 10 µM): 45.2%
